Assay results reported in patent US20250040545A1, “USE OF SYNERGISTIC COMPOSITIONS BASED ON ZOXAMIDE AND CYFLUFENAMID AS FUNGICIDES IN THE AGRONOMIC FIELD” (Gowan Crop Protection Limited, priority 2023, published 2025).
Several values for one entry are separate records, joined by “and”; a condition that tells them apart may be missing. Equal values may be shown once.

Key:
Type in all cases: cell-based
Conditions in all cases: single active ingredient
Venturia inaequalis = assay: In vitro antifungal synergy assay, growth inhibition in 96-well plates (absorbance), Venturia inaequalis
Experimental: (§1) Compositions consisting of the active ingredients Zoxamide (A) and Cyflufenamid (B) in different weight ratios were tested to evaluate their in vitro synergistic antifungal activity against the following phytopathogenic fungi: Botrytis cinerea, Sclerotinia minor and Venturia inaequalis by comparing them with the single active ingredients (A) and (B).
(§2) The strains in pure culture are kept and stored at 4° C. in a refrigerator on potato dextrose agar (PDA) nutrient substrates. The fungal inoculum was prepared (which, depending on the species of the pathogen, could be a suspension of conidia or a mycelial homogenate) for carrying out the synergy assays.
(§3) For the strains not easily sporulating in vitro, i.e. Sclerotinia minor and Venturia inaequalis, six to eight pieces of mycelium, taken from actively growing cultures, are transferred into a grinding egg containing 6 ml of double-concentration potato dextrose broth (PDB). and some metal balls. The suspension is homogenized with a Pulverisette 23 mini-mill (Fritsch GmbH).
(§4) In the compositions tested, the weight ratios of Zoxamide (A) with respect to Cyflufenamid (B) range from 500:1 to 1:100. For both molecules tested, a stock solution in dimethyl sulfoxide (DMSO) at 160,000 mg/l was prepared which was then serially diluted in sterile demineralized water to obtain the solutions to be tested at concentrations double with respect to the final doses. More specifically, the compositions of the two fungicide molecules (A) and (B) were tested following a checkerboard matrix in order to have, in this way, all possible combinations of the two fungicides within the weight ratios described above.
(§5) Synergy assays were performed in 96-well plates: 50 μl of inoculum were mixed with 50 μl of solution of the compositions consisting of the two active molecules (A) and (B) in each well using the Eppendorf Multipette® System E3 serial dispenser.
(§6) Three wells were used as replicates for each concentration/active ingredient composition.
(§7) All pathogen strains were grown in untreated control wells containing 50 μl of fungal suspension and 50 μl of sterile demineralized water. The inoculated multi-well plates are incubated at 22° C. for 72 hours or 96 or 120 depending on the type of pathogen.
(§8) The sensitivity to the molecules was evaluated as growth inhibition of the fungus and measured in terms of absorbance immediately before and after the incubation period.
(§9) The absorbance was measured for each well using the Infinite® F50 Absorbance Reader (Tecan Group Ltd) spectrophotometer at 405 nm (for mycelial inoculums) and at 492 nm (for conidic inoculums).
(§10) For each strain, the percentage of growth inhibition (GIP) caused by each of the active-ingredient concentrations was calculated using the following formula: […]
(§11) wherein At72-120 and At0 are respectively the absorbances of the treated well and of the untreated control measured at the end and at the beginning of the incubation period. GIP data were used for calculating the potential synergistic effect of the compositions tested using the formula proposed by Colby (1967):
(§12) [formula] • wherein: • GIPt=GIP expected of the active molecule A and B tested at dose p for molecule • A and dose q for molecule B: • GIPa=GIP expected from the molecule A tested at dose p; • GIPb=GIP expected from the molecule B tested at dose q.
(§13) The synergistic effect of the two molecules is indicated when the effectiveness of the mixed combination of A+B […], is higher than the expected effectiveness calculated with the Colby equation (GIPa+b/GIPt>1), as described in literature in Colby, S. R. (1967): “Calculating synergistic and antagonistic responses of herbicide combinations”, Weeds, 15 (1), pages 20-22.

Botrytis cinerea = assay: In vitro antifungal synergy assay, growth inhibition in 96-well plates (absorbance), Botrytis cinerea
Experimental: as §1, §2
For the in vitro sporulating strain, i.e. Botrytis cinerea, the conidic suspension was prepared starting from a culture grown on PDA after 4-5 days of incubation in a thermostat at 24° C. to stimulate its sporulation. The conidia were collected in 1 mL of double-concentration PDB and counted under a microscope with a counting chamber to obtain a final inoculum of 4×10^4 conidia/mL.
as §4, §5, §6, §7, §8, §9, §10, §11, §12, §13

Sclerotinia minor = assay: In vitro antifungal synergy assay, growth inhibition in 96-well plates (absorbance), Sclerotinia minor
Experimental: as §1, §2, §3, §4, §5, §6, §7, §8, §9, §10, §11, §12, §13

Row | Compound | Effect A, Effect B (GIP) (Venturia inaequalis; dose 0.1 mg/l) | Effect A, Effect B (GIP) (Venturia inaequalis; dose 1 mg/l) | Effect A, Effect B (GIP) (Venturia inaequalis; dose 5 mg/l) | Effect A, Effect B (GIP) (Venturia inaequalis; dose 10 mg/l) | Effect A, Effect B (GIP) (Venturia inaequalis; dose 50 mg/l) | Effect A, Effect B (GIP) (Venturia inaequalis; dose 100 mg/l) | Effect A, Effect B (GIP) (Botrytis cinerea; dose 0.1 mg/l) | Effect A, Effect B (GIP) (Botrytis cinerea; dose 1 mg/l) | Effect A, Effect B (GIP) (Botrytis cinerea; dose 5 mg/l) | Effect A, Effect B (GIP) (Botrytis cinerea; dose 50 mg/l) | Effect A, Effect B (GIP) (Botrytis cinerea; dose 100 mg/l) | Effect A, Effect B (GIP) (Sclerotinia minor; dose 0.1 mg/l) | Effect A, Effect B (GIP) (Sclerotinia minor; dose 1 mg/l) | Effect A, Effect B (GIP) (Sclerotinia minor; dose 5 mg/l) | Effect A, Effect B (GIP) (Sclerotinia minor; dose 10 mg/l) | Effect A, Effect B (GIP) (Botrytis cinerea; dose 10 mg/l) | Effect A, Effect B (GIP) (Sclerotinia minor; dose 50 mg/l) | Effect A, Effect B (GIP) (Sclerotinia minor; dose 100 mg/l)
1 | O=C(Cc1ccccc1)N/C(=N\OCC1CC1)c1c(C(F)(F)F)ccc(F)c1F [Cyflufenamid] | 1.2% | 5.5% | 10.3% | 12.7% | 15.2% and 12.7% | 18.3% and 18.0% | 1.7% | 4.3% | 10.6% | 49.4% | 60.2% | 3.7% | 10.2% | 17.8% | 23.4% |  |  | 
2 | CCC(C)(NC(=O)c1cc(Cl)c(C)c(Cl)c1)C(=O)CCl (centres unmarked) [Zoxamide] |  | 78.0% | 78.8% | 80.0% | 80.1% | 84.5% and 84.0% |  | 5.6% |  | 47.3% | 56.9% | 2.5% | 29.1% |  | 37.6% | 31.2% | 58.2% | 70.3%
